In patent US11814352B2, “Salts formed by 2-(1-acyloxy-n-pentyl) benzoic acid and basic amino acid or aminoguanidine, and preparation method and application thereof” (JIANGSU KANION PHARMACEUTICAL CO., LTD., priority 2018, dated 2023):
≈ marks a conversion by molar mass, not a printed value. Where “and” joins values, the source holds several entries; their conditions need not be identical. Equal entries are not always repeated. Where two headings read alike, the source gives them in different places.

Key:
[1] = system: ADP induced platelet aggregation; test: In vitro anti-platelet aggregation, ADP induced (turbidimetry, PRP); format: cell-based, rabbits; conditions: read-out: IC50 ADP (10 μM); rabbit PRP, inducer ADP 10 μM, 37° C.
MCAO rats = test: Cerebral infarction, cerebral edema and nerve function of rats with focal cerebral ischemia (MCAO); format: in vivo, SD rats; conditions: MCAO rats; for inhibition at 10 mg/kg/day: Rattus norvegicus
[2] = Preliminary stability of sample solution in water and methanol; format: physicochemical; conditions: 1 mg/mL stock prepared 2018 Jun. 25, analysed Jun. 29, Jul. 2, Jul. 7
Experimental: 2018 Jun. […] For each sample test, the stock solution was taken and diluted freshly.
2018 Jun. 29 200 μL of the stock solution was pipetted, 3800 μL of a mobile phase in the initial ratio was added, and 10 μL of a test sample with a concentration of 50 μg/mL was prepared for injection and analysis.
2018 Jul. 2 200 μL of the stock solution was pipetted, 3800 μL of a mobile phase in the initial ratio was added, and 10 μL of a test sample with a concentration of 50 μg/mL was prepared for injection and analysis.
2018 Jul. 7 200 μL of the stock solution was pipetted, 3800 μL of a mobile phase in the initial ratio was added, and 10 μL of a test sample with a concentration of 50 μg/mL was prepared for injection and analysis.
29, 2018 Jul. 2, and 2018 Jul.

[3] = system: bleeding time in mice after tail cutting; test: Effect on bleeding time in mice after tail cutting; format: in vivo, Kunming mice; conditions: 5 mg/kg orally once a day for 14 days, 1 h after last dose
Experimental: SPF Kunming mice, weighing 18-22 g, purchased from Beijing Vital River Laboratory Animal Technology Co., Ltd., having a certificate number of SCXK (Beijing) 2010-0002, raised in an SPF animal room with indoor temperature controlled at 23±2° C., and allowed to freely eat and drink. The day and night time was 12 h/12 h.
The administration dose level of the positive drug groups and the test drug groups was 5 mg/kg, and the same amount of normal saline was given to the negative control group. All mice were administered for 14 consecutive days orally once a day. One hour after the last dose, the mice were anesthetized with 1-2% isoflurane, and the tails were cut for 5 mm. The tips of the tails were absorbed dry with filter paper every 30 seconds until the bleeding stopped naturally. Bleeding time is defined as the interval between the start and stop of bleeding.

[4] = Solubility test (saturated solubility in water); format: physicochemical; conditions: 25±2° C.; for solubility at 30 min: 25 °C, thermodynamic from solid
Experimental: Test method: 10 mg of a test sample (solid was ground into fine powder) was weighed and added to a certain amount of solvent at 25±2° C. (the temperature of a water bath is controlled at 25° C.), and the solution was shaken vigorously for 30 s every 5 min. The dissolution was observed within 30 min. When there were no visible solute particles or droplets, the test sample was regarded as completely dissolved.

[5] = system: AA induced platelet aggregation; test: In vitro anti-platelet aggregation, AA induced (turbidimetry, PRP); format: cell-based, rabbits; conditions: read-out: IC50 AA (1 mM); rabbit PRP, inducer AA 1 mM, 37° C.
[6] = biological target: hERG potassium channel of CHO-hERG cells (Homo sapiens, UniProt Q12809); test: Effect on hERG potassium channel (automatic patch clamp)
[7] = system: histidine-deficient TA97, TA98, TA100 and TA102 strains of Salmonella typhimurium; test: Bacterial reverse mutation test (Ames test); conditions: 0.1-1000 μg/dish, with and without S9
Experimental: The test bacteria are the histidine-deficient TA97, TA98, TA100 and TA102 strains of Salmonella typhimurium, and the dose range of the test sample is 0.1-1000 μg/dish.

[8] = 10 mg/kg/day iv 3 days (combinations equimolar), first dose 2 h after reperfusion

Sequence of hERG potassium channel of CHO-hERG cells (Q12809 whole entry): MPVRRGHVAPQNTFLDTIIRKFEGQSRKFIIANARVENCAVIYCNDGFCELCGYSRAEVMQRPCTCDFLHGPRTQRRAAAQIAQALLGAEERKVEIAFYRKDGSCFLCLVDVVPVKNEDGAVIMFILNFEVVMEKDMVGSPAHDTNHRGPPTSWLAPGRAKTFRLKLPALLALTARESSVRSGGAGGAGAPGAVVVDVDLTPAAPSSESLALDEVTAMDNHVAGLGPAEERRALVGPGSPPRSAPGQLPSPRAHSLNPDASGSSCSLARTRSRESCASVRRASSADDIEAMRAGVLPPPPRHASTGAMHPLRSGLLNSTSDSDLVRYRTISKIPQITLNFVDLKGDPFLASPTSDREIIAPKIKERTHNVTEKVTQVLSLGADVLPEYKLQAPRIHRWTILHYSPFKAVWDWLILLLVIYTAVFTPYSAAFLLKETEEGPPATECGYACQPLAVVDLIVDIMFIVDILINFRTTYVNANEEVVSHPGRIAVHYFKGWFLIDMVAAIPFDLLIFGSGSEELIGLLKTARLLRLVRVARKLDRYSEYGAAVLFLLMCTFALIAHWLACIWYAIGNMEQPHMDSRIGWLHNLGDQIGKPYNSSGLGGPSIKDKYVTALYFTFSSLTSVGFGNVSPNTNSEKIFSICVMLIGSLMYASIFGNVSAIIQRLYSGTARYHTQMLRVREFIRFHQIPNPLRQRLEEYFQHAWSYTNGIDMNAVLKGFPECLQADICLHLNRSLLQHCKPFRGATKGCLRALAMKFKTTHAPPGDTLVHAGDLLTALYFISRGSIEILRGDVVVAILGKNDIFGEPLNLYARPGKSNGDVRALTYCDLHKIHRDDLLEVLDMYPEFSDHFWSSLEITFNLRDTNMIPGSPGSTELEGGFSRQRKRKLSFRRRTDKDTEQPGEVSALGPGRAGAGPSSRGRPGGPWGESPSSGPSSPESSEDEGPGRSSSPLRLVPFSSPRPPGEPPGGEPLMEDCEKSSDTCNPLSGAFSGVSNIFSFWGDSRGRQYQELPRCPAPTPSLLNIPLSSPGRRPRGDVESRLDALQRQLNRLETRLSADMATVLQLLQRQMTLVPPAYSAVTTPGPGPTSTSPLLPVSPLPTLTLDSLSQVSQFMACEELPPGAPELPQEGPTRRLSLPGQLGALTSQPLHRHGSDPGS

## CCCC[C@H](OC(C)=O)c1ccccc1C(=O)O [I1s, L-Arginine (S)-2-(1-Acetoxy-n-Pentyl) Benzoate]
[1]
  IC50: 720 ± 80 µM
MCAO rats; [8]
  Cerebral edema: 0.18 ± 3.96%
  Infarct volume: 9.12 ± 1.18%
MCAO rats; 10 mg/kg/day iv, 2 h after reperfusion
  Neurological function of rats with focal cerebral ischemia: significant neurological improvement effects
MCAO rats; 10 mg/kg/day iv 3 days (combinations equimolar), first dose 2 h after reperfusion, read-out: Inhibition rate of cerebral edema
  inhibition at 10 mg/kg/day: 98.8%
MCAO rats; 10 mg/kg/day iv 3 days (combinations equimolar), first dose 2 h after reperfusion, read-out: Inhibition rate of infarct volume
  inhibition at 10 mg/kg/day: 78.2%
[2]
  Stability of the sample solution in CH3OH: basically stable
  Stability of the sample solution in H2O: basically stable
[3]
  Bleeding time: 25.31 ± 1.01 min
[4]; read-out: Saturated solubility in H2O, Mean
  solubility at 30 min: 136 mg/mL (≈ 544 mM)
[4]; read-out: Saturated solubility in H2O, dissolved sample amount (single determinations)
  solubility at 30 min: 134 mg/mL (≈ 535 mM)
[4]
  Saturated solubility in H2O, dissolved sample amount (single determinations): 134.24 mg/mL and 138.23 mg/mL and 138.40 mg/mL
[5]
  IC50: 160 ± 20 µM
[6]
  IC50: > 40 µM
[7]
  Ames test result (mutagenicity): negative
